Measurements published in ChEMBL document CHEMBL1144455, “A small molecule-kinase interaction map for clinical kinase inhibitors” (Nat Biotechnol, 2005).

Experiments:
[1] = target: Tyrosine-protein kinase BTK (Homo sapiens, UniProt Q06187)
[2] = target: Tyrosine-protein kinase JAK2 (Homo sapiens, UniProt O60674)
[3] = target: T1, Membrane-associated tyrosine- and threonine-specific cdc2-inhibitory kinase (Homo sapiens, UniProt Q99640)
T1 sequence (Q99640 whole entry): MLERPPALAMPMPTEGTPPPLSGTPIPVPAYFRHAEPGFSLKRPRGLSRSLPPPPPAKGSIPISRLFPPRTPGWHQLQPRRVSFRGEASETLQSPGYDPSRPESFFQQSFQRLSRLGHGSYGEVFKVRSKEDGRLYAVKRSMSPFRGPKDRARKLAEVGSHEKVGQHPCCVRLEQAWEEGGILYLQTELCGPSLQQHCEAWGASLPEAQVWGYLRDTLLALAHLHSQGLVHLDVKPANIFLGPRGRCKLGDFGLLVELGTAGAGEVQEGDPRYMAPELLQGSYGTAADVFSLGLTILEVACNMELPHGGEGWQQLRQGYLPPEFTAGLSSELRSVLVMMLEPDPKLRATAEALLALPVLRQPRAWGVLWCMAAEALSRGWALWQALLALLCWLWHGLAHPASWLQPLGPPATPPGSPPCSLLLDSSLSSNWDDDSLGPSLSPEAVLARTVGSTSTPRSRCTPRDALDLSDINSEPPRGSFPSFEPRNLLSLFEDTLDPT

[4] = target: Mitogen-activated protein kinase kinase kinase kinase 5 (Homo sapiens, UniProt Q9Y4K4)
[5] = target: Dual specificity protein kinase CLK1 (Homo sapiens, UniProt P49759)
[6] = target: Dual specificity protein kinase CLK3 (Homo sapiens, UniProt P49761)
[7] = target: Mitogen-activated protein kinase 10 (Homo sapiens, UniProt P53779)
[8] = target: Serine/threonine-protein kinase pim-2 (Homo sapiens, UniProt Q9P1W9)
[9] = target: T2, Serine/threonine-protein kinase PLK4 (Homo sapiens, UniProt O00444)
T2 sequence (O00444 whole entry): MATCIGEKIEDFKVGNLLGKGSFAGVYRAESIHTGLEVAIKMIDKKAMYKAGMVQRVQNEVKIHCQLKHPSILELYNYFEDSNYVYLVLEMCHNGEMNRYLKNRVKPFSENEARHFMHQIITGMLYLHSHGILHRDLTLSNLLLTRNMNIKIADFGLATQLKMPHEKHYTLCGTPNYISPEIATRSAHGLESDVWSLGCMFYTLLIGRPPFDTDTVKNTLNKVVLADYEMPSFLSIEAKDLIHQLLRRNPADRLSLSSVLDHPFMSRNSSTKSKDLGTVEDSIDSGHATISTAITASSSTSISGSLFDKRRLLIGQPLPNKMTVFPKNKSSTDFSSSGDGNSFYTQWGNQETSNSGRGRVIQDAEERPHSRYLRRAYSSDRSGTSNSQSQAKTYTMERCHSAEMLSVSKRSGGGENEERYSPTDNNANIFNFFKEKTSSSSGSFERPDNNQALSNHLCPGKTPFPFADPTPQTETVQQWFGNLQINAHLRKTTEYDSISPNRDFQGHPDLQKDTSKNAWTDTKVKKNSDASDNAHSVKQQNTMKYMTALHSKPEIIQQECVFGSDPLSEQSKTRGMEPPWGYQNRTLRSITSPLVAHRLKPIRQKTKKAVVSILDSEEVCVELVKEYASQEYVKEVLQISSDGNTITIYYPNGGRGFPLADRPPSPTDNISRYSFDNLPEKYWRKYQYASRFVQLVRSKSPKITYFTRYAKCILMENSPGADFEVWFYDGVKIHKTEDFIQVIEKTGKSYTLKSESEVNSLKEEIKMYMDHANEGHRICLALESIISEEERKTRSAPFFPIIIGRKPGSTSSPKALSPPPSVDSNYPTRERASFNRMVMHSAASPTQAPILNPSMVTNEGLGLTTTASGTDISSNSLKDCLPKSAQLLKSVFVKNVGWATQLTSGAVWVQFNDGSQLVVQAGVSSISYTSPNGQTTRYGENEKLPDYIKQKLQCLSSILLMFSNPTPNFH

[10] = target: Calcium/calmodulin-dependent protein kinase kinase 2 (Homo sapiens, UniProt Q96RR4)
[11] = target: T3, Serine/threonine-protein kinase 4 (Homo sapiens, UniProt Q13043)
T3 sequence (Q13043 whole entry): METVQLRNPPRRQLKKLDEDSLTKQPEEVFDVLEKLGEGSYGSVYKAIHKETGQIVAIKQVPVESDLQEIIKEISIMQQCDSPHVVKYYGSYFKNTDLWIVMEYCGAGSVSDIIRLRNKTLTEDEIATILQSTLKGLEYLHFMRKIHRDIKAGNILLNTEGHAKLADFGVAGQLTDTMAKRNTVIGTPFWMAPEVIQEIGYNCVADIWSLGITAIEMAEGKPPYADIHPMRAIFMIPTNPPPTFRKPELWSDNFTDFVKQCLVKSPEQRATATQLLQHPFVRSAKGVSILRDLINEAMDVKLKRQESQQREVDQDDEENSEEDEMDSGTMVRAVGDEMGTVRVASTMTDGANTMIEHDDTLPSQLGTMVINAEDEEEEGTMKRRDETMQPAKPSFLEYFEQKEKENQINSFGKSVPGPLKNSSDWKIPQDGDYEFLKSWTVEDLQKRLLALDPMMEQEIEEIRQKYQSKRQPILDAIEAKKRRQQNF

[12] = target: Cyclin-dependent kinase 2 (Homo sapiens, UniProt P24941)
Aurora kinase C = target: T4, Aurora kinase C (Homo sapiens, UniProt Q9UQB9)
T4 sequence (Q9UQB9 whole entry): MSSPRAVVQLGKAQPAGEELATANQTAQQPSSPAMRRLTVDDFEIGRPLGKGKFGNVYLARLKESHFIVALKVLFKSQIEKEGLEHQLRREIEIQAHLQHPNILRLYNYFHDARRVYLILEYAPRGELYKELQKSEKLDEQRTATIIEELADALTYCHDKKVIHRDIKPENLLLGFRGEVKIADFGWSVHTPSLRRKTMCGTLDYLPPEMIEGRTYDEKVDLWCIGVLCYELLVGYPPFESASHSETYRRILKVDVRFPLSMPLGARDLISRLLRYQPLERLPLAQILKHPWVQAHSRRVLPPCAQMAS

[13] = target: Ribosomal protein S6 kinase alpha-5 (Homo sapiens, UniProt O75582)
[14] = target: Dual specificity protein kinase CLK4 (Homo sapiens, UniProt Q9HAZ1)
[15] = target: Serine/threonine-protein kinase 16 (Homo sapiens, UniProt O75716)
Chain of Serine/threonine-protein kinase 16 (O75716 whole entry): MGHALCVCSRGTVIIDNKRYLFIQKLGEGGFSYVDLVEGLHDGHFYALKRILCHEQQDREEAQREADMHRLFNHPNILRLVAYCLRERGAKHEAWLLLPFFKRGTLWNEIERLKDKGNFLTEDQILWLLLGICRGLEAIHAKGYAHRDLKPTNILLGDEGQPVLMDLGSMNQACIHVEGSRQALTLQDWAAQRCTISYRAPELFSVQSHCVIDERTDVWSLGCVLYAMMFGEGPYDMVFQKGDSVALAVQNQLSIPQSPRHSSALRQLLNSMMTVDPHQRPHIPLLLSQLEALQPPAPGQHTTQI

Chain of Mitogen-activated protein kinase 10 (P53779 whole entry): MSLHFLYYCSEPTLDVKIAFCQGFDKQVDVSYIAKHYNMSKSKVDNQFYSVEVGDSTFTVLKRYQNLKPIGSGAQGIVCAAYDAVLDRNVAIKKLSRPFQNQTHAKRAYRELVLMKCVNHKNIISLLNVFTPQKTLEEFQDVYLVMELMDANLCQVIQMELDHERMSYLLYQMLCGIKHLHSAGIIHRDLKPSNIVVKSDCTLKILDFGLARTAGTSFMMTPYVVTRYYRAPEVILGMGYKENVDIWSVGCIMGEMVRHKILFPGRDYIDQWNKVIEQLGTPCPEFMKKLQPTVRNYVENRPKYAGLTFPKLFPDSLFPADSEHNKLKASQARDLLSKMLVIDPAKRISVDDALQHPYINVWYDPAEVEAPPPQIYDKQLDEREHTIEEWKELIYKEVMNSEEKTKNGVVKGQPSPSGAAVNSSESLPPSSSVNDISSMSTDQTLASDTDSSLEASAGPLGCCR
Chain of Serine/threonine-protein kinase pim-2 (Q9P1W9 whole entry): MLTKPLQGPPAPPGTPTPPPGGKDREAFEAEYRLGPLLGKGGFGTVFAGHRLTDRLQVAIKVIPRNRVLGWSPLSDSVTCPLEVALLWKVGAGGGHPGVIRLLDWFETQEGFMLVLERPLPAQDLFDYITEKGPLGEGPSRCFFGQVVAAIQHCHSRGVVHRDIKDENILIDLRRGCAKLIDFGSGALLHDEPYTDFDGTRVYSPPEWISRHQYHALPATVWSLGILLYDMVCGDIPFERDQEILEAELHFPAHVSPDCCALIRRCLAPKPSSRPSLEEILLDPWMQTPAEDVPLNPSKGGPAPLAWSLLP
Chain of Tyrosine-protein kinase BTK (Q06187 whole entry): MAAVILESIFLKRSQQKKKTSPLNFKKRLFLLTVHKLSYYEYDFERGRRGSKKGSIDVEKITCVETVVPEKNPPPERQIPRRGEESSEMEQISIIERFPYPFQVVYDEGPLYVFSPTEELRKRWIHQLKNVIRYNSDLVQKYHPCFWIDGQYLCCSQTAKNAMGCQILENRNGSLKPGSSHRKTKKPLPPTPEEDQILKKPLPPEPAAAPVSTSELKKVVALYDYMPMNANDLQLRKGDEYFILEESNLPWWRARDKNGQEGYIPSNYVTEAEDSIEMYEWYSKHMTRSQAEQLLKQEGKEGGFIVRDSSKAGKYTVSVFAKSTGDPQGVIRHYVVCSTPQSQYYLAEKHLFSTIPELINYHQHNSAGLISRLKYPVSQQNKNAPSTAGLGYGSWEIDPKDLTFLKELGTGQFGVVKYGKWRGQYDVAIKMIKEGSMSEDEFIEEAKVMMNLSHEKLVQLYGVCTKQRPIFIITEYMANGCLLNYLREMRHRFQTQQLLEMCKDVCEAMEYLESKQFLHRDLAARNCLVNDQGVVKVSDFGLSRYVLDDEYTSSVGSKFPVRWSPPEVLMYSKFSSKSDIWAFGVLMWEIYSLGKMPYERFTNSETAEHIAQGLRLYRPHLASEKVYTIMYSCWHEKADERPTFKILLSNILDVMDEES
Chain of Calcium/calmodulin-dependent protein kinase kinase 2 (Q96RR4 whole entry): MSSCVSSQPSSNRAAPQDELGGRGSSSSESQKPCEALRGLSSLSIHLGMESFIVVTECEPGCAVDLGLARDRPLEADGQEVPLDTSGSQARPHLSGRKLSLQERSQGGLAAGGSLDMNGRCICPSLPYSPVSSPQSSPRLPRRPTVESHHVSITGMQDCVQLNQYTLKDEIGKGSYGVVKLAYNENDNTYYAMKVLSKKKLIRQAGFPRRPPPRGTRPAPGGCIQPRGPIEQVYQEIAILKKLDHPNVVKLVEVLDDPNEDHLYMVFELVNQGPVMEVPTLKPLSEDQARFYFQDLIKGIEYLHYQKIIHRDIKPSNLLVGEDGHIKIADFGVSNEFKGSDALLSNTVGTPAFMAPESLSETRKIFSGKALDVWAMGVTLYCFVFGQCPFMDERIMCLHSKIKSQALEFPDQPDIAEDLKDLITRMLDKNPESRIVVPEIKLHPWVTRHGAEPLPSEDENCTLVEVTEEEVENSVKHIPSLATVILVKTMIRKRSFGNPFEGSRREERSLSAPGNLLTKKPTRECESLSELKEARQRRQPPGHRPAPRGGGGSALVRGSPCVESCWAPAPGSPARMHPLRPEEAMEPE
Chain of Ribosomal protein S6 kinase alpha-5 (O75582 whole entry): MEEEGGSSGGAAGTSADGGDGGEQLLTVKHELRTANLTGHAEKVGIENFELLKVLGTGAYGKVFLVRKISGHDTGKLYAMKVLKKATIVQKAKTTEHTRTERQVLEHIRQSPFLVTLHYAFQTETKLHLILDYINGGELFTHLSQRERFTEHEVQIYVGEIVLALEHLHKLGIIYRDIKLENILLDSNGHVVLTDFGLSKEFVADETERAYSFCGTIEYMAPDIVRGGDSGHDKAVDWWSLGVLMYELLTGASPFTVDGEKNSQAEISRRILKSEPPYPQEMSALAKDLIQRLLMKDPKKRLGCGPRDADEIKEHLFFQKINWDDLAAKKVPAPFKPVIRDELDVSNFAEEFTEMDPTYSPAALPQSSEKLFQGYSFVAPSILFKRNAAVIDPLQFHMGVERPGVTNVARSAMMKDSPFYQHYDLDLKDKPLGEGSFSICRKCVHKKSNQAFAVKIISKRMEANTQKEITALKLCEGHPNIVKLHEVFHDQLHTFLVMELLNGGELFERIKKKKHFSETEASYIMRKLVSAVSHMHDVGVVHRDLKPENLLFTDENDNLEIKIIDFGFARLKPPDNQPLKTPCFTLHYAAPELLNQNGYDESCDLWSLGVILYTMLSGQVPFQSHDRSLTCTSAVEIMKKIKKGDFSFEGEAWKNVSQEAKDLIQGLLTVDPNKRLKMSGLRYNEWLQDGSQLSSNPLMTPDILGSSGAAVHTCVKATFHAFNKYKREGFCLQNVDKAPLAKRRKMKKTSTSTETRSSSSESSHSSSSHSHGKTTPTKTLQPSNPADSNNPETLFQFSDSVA
Chain of Dual specificity protein kinase CLK1 (P49759 whole entry): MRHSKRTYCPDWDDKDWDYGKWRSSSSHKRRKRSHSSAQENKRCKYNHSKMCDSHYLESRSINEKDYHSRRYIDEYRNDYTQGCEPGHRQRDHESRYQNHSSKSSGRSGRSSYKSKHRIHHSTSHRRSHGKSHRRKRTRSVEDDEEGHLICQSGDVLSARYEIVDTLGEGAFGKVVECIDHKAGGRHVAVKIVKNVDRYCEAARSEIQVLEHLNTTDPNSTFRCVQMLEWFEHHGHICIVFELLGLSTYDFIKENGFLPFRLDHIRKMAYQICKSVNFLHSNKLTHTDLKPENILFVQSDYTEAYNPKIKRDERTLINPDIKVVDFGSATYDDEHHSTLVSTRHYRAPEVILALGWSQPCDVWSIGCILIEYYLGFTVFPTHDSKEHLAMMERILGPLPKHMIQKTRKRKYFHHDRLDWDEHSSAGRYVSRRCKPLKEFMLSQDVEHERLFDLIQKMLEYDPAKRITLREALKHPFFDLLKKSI
Chain of Mitogen-activated protein kinase kinase kinase kinase 5 (Q9Y4K4 whole entry): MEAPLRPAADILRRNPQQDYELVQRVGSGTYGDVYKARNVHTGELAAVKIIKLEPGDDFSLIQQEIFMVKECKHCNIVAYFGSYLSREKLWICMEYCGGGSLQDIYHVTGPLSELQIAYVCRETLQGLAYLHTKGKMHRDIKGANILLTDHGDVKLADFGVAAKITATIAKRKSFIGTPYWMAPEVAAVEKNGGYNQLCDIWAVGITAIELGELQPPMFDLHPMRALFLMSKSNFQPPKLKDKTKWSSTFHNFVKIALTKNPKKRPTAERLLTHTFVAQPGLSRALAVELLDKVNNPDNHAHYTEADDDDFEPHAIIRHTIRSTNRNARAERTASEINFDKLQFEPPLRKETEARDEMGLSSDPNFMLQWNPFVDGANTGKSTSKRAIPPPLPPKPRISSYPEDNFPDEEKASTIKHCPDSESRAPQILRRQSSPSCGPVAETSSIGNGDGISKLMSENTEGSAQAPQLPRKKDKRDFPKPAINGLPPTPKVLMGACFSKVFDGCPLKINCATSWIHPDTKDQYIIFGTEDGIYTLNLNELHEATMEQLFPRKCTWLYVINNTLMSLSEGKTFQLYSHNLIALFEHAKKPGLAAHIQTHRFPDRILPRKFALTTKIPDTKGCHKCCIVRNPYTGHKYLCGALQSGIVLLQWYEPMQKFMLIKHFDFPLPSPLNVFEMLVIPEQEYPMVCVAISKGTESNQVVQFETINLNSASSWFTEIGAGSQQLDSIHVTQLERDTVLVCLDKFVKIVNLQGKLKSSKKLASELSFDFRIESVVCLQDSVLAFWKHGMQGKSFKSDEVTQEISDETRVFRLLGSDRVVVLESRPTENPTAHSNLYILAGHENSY
Chain of Dual specificity protein kinase CLK3 (P49761 whole entry): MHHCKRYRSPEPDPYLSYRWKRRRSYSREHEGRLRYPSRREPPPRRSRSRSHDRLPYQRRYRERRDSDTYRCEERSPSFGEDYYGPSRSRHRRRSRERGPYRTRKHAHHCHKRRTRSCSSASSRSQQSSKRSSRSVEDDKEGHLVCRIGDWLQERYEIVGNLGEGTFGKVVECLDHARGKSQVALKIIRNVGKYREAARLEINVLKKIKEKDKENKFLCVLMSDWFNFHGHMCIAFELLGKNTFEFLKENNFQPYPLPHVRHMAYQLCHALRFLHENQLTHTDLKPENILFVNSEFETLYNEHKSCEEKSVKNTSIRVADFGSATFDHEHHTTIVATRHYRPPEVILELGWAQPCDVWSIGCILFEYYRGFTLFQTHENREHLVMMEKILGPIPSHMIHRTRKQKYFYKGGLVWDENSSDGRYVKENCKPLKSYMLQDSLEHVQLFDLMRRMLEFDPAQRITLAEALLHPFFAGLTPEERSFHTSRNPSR

Compound: CCOc1cc2ncc(C#N)c(Nc3ccc(F)c(Cl)c3)c2cc1NC(=O)/C=C/CN(C)C [PELITINIB]
- Kd [1]: 1.5 µM
- Kd [2]: 2 µM
- Kd [3]: 0.93 µM
- Kd [4]: 0.0037 µM
- Kd [5]: 1 µM
- Kd [6]: 2.1 µM

Compound: Oc1ccc(-c2nc(-c3ccc(F)cc3)c(-c3ccncc3)[nH]2)cc1 [SB-202190]
- Kd [7]: 0.051 µM

Compound: Oc1c2ccccc2c2c3c(cccc13)N=N2 [SP-600125]
- Kd [8]: 0.46 µM
- Kd [9]: 0.77 µM
- Kd [10]: 7.5 µM
- Kd [11]: 2.2 µM
- Kd [12]: 3.2 µM
- Kd (Aurora kinase C): 5.3 µM
- Kd [13]: 1.7 µM
- Kd [14]: 0.26 µM
- Kd [15]: 0.51 µM
